Source: patent US7956053B2, “Inhibitors of tyrosine kinases” (Novartis AG, priority 2002, dated 2011)

Experiments:
[1] = target: T1, c-Abl (Homo sapiens, UniProt P00519); experiment: Test for activity against c-Abl protein tyrosine kinase (filter binding assay); type: biochemical
T1 construct: The His-tagged kinase domain of c-Abl is cloned and expressed in the baculovirus/Sf9 system; His; made in house; host or cells: baculovirus/Sf9
T1 sequence (P00519 242-493 limits assumed): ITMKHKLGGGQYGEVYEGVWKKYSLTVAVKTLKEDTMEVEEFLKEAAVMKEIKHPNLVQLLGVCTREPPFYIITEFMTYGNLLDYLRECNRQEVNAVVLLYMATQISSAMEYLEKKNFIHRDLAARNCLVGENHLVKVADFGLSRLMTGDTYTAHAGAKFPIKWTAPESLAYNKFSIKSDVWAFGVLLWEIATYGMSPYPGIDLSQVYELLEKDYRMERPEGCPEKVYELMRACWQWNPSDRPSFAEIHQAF
Description: Test for activity against c-Abl protein tyrosine kinase. The test is conducted as a filter binding assay as follows: The His-tagged kinase domain of c-Abl is cloned and expressed in the baculovirus/Sf9 system as described by Bhat et al., J Biol. Chem. 272, 16170-5 (1997). A protein of 37 kD (c-Abl kinase) is purified by a two-step procedure over a Cobalt metal chelate column followed by an anion exchange column with a yield of 1-2 mg/L of Sf9 cells. The purity of the c-Abl kinase is >90% as judged by SDS-PAGE after Coomassie blue staining. The assay contains: c-Abl kinase (50 ng), 20 mM Tris.HCl, pH 7.5, 10 mM MgCl2, 10 μM Na3VO4, 1 mM DTT and 0.06 μCi/assay [γ^33 P]-ATP (5 μM ATP) using 30 μg/mL poly-Ala,Glu,Lys,Tyr-6:2:5:1 (Poly-AEKY, Sigma P1152) in the presence of 1% DMSO, total volume of 30 μL. Reactions are terminated by adding 10 μL of 250 mM EDTA, and 30 μL of the reaction mixture is transferred onto Immobilon-PVDF membrane (Millipore, Bedford, Mass., USA) previously soaked for 5 min with methanol, rinsed with water, then soaked for 5 min with 0.5% H3PO4 and mounted on vacuum manifold with disconnected vacuum source. After spotting all samples, vacuum is connected and each well rinsed with 200 μL 0.5% H3PO4. Membranes are removed and washed on a shaker with 0.5% H3PO4 (4 times) and once with ethanol. Membranes are counted after drying at ambient temperature, mounting in Packard TopCount 96-well frame, and addition of 10 μL/well of Microscint™ (Packard).
(§1) Enzymatic (c-Abl, KDR, Flt3) in vitro inhibition data are presented as % inhibition at 10 μM. The measurements are made as described above in the general description.

[2] = target: KDR (Homo sapiens, UniProt P35968); experiment: Enzymatic KDR in vitro inhibition; type: biochemical
Description: Test for activity against VEGF-receptor tyrosine kinase. The test is conducted using Flt-1 VEGF-receptor tyrosine kinase. The detailed procedure is as follows: 30 μL kinase solution (10 ng of the kinase domain of Flt-1, Shibuya et al., Oncogene 5, 519-24 [1990]) in 20 mM Tris.HCl pH 7.5, 3 mM manganese dichloride (MnCl2), 3 mM magnesium chloride (MgCl2), 10 μM sodium vanadate, 0.25 mg/mL polyethylenglycol (PEG) 20000, 1 mM dithiothreitol and 3 μg/μL poly(Glu,Tyr) 4:1 (Sigma, Buchs, Switzerland), 8 μM [^33P]-ATP (0.2 μCi), 1% DMSO, and 0 to 100 μM of the compound to be tested are incubated together for 10 minutes at room temperature. The reaction is then terminated by the addition of 10 μL 0.25 M ethylenediaminetetraacetate (EDTA) pH 7. Using a multichannel dispenser (LAB SYSTEMS, USA), an aliquot of 20 μL is applied to a PVDF (=polyvinyl difluoride) Immobilon P membrane (Millipore, Bedford, USA), through a Gibco-BRL microtiter filter manifold and connected to a vacuum. Following complete elimination of the liquid, the membrane is washed 4 times successively in a bath containing 0.5% phosphoric acid (H3PO4) and once with ethanol, incubated for 10 minutes each time while shaking, then mounted in a Hewlett Packard TopCount Manifold and the radioactivity measured after the addition of 10 μL Microscint® (β-scintillation counter liquid). IC50-values are determined by linear regression analysis of the percentages for the inhibition of each compound in at least four concentrations (as a rule 0.01, 0.1, 1.0 and 10 μmol).
as §1

Sequence of KDR (P35968 20-1356): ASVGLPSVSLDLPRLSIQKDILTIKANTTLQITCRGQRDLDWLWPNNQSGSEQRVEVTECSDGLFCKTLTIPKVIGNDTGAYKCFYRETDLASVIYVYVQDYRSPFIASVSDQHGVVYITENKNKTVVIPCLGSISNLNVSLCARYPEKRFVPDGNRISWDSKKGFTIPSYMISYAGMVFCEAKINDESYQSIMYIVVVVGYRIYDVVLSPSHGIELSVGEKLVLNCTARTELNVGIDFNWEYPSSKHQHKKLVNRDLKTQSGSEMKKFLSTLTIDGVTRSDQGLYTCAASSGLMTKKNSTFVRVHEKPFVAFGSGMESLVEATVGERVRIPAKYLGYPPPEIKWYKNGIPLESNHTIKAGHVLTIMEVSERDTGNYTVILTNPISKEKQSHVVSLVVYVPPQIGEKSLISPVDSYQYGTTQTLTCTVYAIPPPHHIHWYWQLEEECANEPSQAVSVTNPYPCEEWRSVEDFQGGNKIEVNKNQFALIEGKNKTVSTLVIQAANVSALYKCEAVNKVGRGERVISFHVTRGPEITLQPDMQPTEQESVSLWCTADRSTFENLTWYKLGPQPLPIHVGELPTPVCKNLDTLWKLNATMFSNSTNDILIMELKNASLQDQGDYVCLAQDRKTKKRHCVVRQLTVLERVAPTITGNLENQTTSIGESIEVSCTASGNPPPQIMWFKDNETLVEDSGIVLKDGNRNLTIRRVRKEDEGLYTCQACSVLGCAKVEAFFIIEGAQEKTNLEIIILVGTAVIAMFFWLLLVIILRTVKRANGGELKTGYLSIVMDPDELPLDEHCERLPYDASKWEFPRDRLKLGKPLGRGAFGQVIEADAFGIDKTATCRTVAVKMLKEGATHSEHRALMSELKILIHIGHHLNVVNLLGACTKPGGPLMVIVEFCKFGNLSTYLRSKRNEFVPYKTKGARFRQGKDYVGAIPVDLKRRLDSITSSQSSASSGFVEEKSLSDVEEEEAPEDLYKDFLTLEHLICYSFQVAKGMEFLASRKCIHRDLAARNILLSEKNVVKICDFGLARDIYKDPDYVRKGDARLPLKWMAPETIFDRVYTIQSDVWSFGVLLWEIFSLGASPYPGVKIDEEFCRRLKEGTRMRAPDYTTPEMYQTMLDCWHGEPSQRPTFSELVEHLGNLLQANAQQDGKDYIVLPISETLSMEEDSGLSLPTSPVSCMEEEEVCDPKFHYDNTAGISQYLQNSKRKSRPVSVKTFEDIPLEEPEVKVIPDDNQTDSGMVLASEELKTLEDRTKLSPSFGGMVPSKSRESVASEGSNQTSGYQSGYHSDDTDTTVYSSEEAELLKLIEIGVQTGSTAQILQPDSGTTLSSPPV

Compound	inhibition at 10 µM [1]	inhibition at 10 µM [2]
Cc1ccc(C(=O)NCC(c2ccccc2)c2ccccc2)cc1Nc1nccc(-c2cccnc2)n1 [Example 49, N-(2,2-Diphenylethyl)-4-methyl-3-[[4-(3-pyridinyl)-2-pyrimidinyl]amino]-benzamide]	72%	37%
Cc1ccc(C(=O)NC2CCc3ccccc32)cc1Nc1nccc(-c2cccnc2)n1 (stereo not drawn) [Example 50, N-(2,3-Dihydro-1H-inden-1-yl)-4-methyl-3-[[4-(3-pyridinyl)-2-pyrimidinyl]amino]benzamide]	87%	83%
Cc1ccc(C(=O)NC(c2ccccc2)c2ccccc2)cc1Nc1nccc(-c2cccnc2)n1 [Example 51, N-(Diphenylmethyl)-4-methyl-3-[[4-(3-pyridinyl)-2-pyrimidinyl]amino]benzamide]	92%	52%
Cc1ccc(C(=O)NCCN2CCCCC2)cc1Nc1nccc(-c2cccnc2)n1 [Example 52, 4-Methyl-N-[2-(1-piperidinyl)ethyl]-3-[[4-(3-pyridinyl)-2-pyrimidinyl]amino]benzamide]	78%	37%
Cc1ccc(C(=O)Nc2cccc3c2CCCC3)cc1Nc1nccc(-c2cccnc2)n1 [Example 53, 4-Methyl-3-[[4-(3-pyridinyl)-2-pyrimidinyl]amino]-N-(5,6,7,8-tetrahydro-1-naphthalenyl)benzamide]	88%	79%
Cc1ccc(C(=O)NCc2ccc(C(F)(F)F)cc2)cc1Nc1nccc(-c2cccnc2)n1 [Example 54, 4-Methyl-3-[[4-(3-pyridinyl)-2-pyrimidinyl]amino]-N-[[4-(trifluoromethyl)phenyl]methyl]benzamide]	69%	74%
CCOCCNC(=O)c1ccc(C)c(Nc2nccc(-c3cccnc3)n2)c1 [Example 56, N-(2-Ethoxyethyl)-4-methyl-3-[[4-(3-pyridinyl)-2-pyrimidinyl]amino]benzamide]	40%	44%
Cc1ccc(C(=O)NCCN2CCNC2=O)cc1Nc1nccc(-c2cccnc2)n1 [Example 57, 4-Methyl-N-[2-(2-oxo-1-imidazolidinyl)ethyl]-3-[[4-(3-pyridinyl)-2-pyrimidinyl]amino]benzamide]	8%	42%
Cc1ccc(NC(=O)c2ccc(C)c(Nc3nccc(-c4cccnc4)n3)c2)nc1 [Example 58, 4-Methyl-N-(5-methyl-2-pyridinyl)-3-[[4-(3-pyridinyl)-2-pyrimidinyl]amino]benzamide]	40%	26%
Cc1ccc(C(=O)N2CCC(O)(c3ccccc3)CC2)cc1Nc1nccc(-c2cccnc2)n1 [Example 59, 1-[4-Methyl-3-[[4-(3-pyridinyl)-2-pyrimidinyl]amino]benzoyl]-4-phenyl-4-piperidinol]	75%	83%
Cc1ccc(C(=O)Nc2cccc(C(=O)c3ccccc3)c2)cc1Nc1nccc(-c2cccnc2)n1 [Example 60, N-(3-Benzoylphenyl)-4-methyl-3-[[4-(3-pyridinyl)-2-pyrimidinyl]amino]benzamide]	79%	36%
Cc1ccc(C(=O)NCC(=O)OC(C)(C)C)cc1Nc1nccc(-c2cccnc2)n1 [Example 61, N-[4-Methyl-3-[[4-(3-pyridinyl)-2-pyrimidinyl]amino]benzoyl]-glycine 1,1-dimethylethyl ester]	95%	65%
CCOC(=O)Cc1ccc(NC(=O)c2ccc(C)c(Nc3nccc(-c4cccnc4)n3)c2)cc1 [Example 62, 4-[[4-Methyl-3-[[4-(3-pyridinyl)-2-pyrimidinyl]amino]benzoyl]amino]benzene-acetic acid ethyl ester]	59%	44%
Cc1ccc(C(=O)NCCCN(C)c2ccccc2)cc1Nc1nccc(-c2cccnc2)n1 [Example 63, 4-Methyl-N-[3-(methylphenylamino)propyl]-3-[[4-(3-pyridinyl)-2-pyrimidinyl]-amino]benzamide]	74%	82%
CCOC(=O)C1CCN(Cc2cccc(NC(=O)c3ccc(C)c(Nc4nccc(-c5cccnc5)n4)c3)c2)CC1 [Example 64, 1-[[3-[[4-Methyl-3-[[4-(3-pyridinyl)-2-pyrimidinyl]amino]benzoyl]amino]phenyl]-methyl]-4-piperidinecarboxylic acid ethyl ester]	56%	59%
CCOC(=O)C(NC(=O)c1ccc(C)c(Nc2nccc(-c3cccnc3)n2)c1)C(=O)OCC [Example 65, [[4-Methyl-3-[[4-(3-pyridinyl)-2-pyrimidinyl]amino]benzoyl]amino]propanedioic acid diethyl ester]	96%	60%
Cc1ccc(C(=O)NCCN(C(C)C)C(C)C)cc1Nc1nccc(-c2cccnc2)n1 [Example 66, N-[2-[bis(1-Methylethyl)amino]ethyl]-4-methyl-3-[[4-(3-pyridinyl)-2-pyrimidinyl]-amino]benzamide]	67%	23%
Cc1ccc(C(=O)NCc2cc(C(C)(C)O)cc(C(F)(F)F)c2)cc1Nc1nccc(-c2cccnc2)n1 [Example 68, 4-Methyl-3-[[4-(3-pyridinyl)-2-pyrimidinyl]amino]-N-[[3-[(1-hydroxy-1-methyl-ethyl)]-5-(1,1,1-trifluoromethyl)phenyl]methyl]benzamide]	99%	96%
